Experiments:
Type in all cases: in vivo
Ctenocephalides felis [1] = assay: Ctenocephalides felis oral test (CTECFE); details: 48 h, 100 ppm in cattle blood, after 2 days
Summary of the method: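 About 20 adult unfed fleas fed through parafilm on cattle blood held at 37° C and dosed with compound from a DMSO concentrate; flea chamber at room temperature. Percent mortality scored after 2 days.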

Boophilus microplus = Boophilus microplus injection test (BOOPMI Injection); details: Rhipicephalus microplus, 168 h, injection into adult engorged female ticks, egg deposition after 7 days, read-out: activity (efficacy, infertile eggs); for pest or weed control at 0.004 mg: 4 μg/animal; for pest or weed control at 0.02 mg: 20 μg/animal
Summary of the method: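 Adult engorged female ticks (5 per group) injected into the abdomen with 1 μL compound in DMSO, then held in a climate chamber. Fertile egg deposition scored after 7 days, with unclear eggs kept until hatching (~42 days). Efficacy 100% = all eggs infertile, 0% = all fertile.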

[2] = test system: Culex quinquefasciatus strain P00; assay: Culex quinquefasciatus test (CULXFA surface treatment & contact assay); details: surface concentration 20 mg/m^2, glazed tile, 30 minutes exposure, 24 hours after contact, read-out: efficacy (mortality)
Protocol: Culex quinquefasciatus Test (CULXFA Surface Treatment & Contact Assay)
(§1) Solvent: Aceton+2000 ppm rapeseed oil methyl ester (RME)
(§2) In order to produce a sufficient, active ingredient containing solution it is necessary to solve the test compound in the solvent-mix (acetone at 2 mg/mL/RME 2 000 ppm). This solution is pipetted onto a glazed tile and after evaporation of the acetone, adult mosquitoes of the species Culex quinquefasciatus strain P00 are placed onto the dried surface. The exposure time is 30 minutes.
(§3) Mortality in percent (%) is determined 24 hours after contact of the insects to the treated surface. 100% mortality means that all tested insects are dead, whereas 0% means that no insect died.

Spodoptera frugiperda = Spodoptera frugiperda spray test; details: in Zea mays, 168 h, read-out: activity (mortality)
Summary of the method: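 Compound in acetone/DMF, diluted in water with 1000 ppm alkylarylpolyglycol ether emulsifier, sprayed on maize leaf sections. Dried leaves infested with fall armyworm larvae; % mortality after 7 days (100% = all killed, 0% = none).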

[3] = test system: Rhipicephalus microplus (strain Parkhurst, resistant against synthetic pyrethroids); assay: Rhipicephalus microplus in-vitro contact test, larval cattle tick (BOOPMI Contact); details: 5 μg/cm^2 (=500 g/ha), after 48 hours, read-out: activity (efficacy, larvae dead or moribund)
Summary of the method: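 Glass tubes coated with compound in acetone (900 ppm giving 5 μg/cm²), dried, then loaded with 20-50 pyrethroid-resistant Parkhurst larvae and held at 27 °C, 85% RH. After 48 h negative geotaxis is scored; efficacy in % dead or moribund larvae.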

[4] = test system: Anopheles funestus strain FUMOZ-R; assay: Anopheles funestus test (ANPHFU surface treatment & contact assay); details: 30 minutes exposure, 24 hours after contact, read-out: efficacy (mortality); for mortality at 20 mg/m2: surface concentration 20 mg/m^2, glazed tile
Protocol: Anopheles funestus Test (ANPHFU Surface Treatment & Contact Assay)
as §1
as §2, with “2000” for “2 000”, “Anopheles funestus” for “Culex quinquefasciatus”, “FUMOZ-R (Hunt et al., Med. Vet. Entomol. 2005 September; 19(3): 271-275)” for “P00”
as §3

Myzus persicae [5] = assay: Myzus persicae oral test; details: 120 h, after 5 days
Protocol: Solvent: 100 parts by weight acetone
Afterwards the plates are sealed with parafilm through which a mixed population of the green peach aphid (Myzus persicae) can suck on the compound preparation.
(§4) After 5 days mortality in % is determined. 100% means all aphids have been killed and 0% means none of the aphids have been killed.

Diabrotica balteata = Diabrotica balteata spray test; details: 168 h, wheat seeds, after 7 days, read-out: activity (efficacy, seedlings grown); for pest or weed control at 160 µg/disc, 500 g/ha: 500 g/ha (=160 μg/well)
Summary of the method: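 Germinated wheat seedlings (5 per well, on agar) sprayed with compound in acetone/DMF with emulsifier-containing water, then infested with 10–20 Diabrotica balteata larvae. Efficacy (%) scored after 7 days from seedling growth: 100% = growth as untreated uninfested control, 0% = no seedlings grown.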

[6] = test system: Aedes aegypti strain MONHEIM; assay: Aedes aegypti test (AEDSAE surface treatment & contact assay); details: 30 minutes exposure, 24 hours after contact, read-out: efficacy (mortality); for mortality at 20 mg/m2: surface concentration 20 mg/m^2, glazed tile
Protocol: Aedes aegypti Test (AEDSAE Surface Treatment & Contact Assay)
as §1
as §2, with “2000” for “2 000”, “Aedes aegypti” for “Culex quinquefasciatus”, “MONHEIM” for “P00”
as §3

Ctenocephalides felis [7] = assay: Ctenocephalides felis in-vitro contact test, adult cat flea; details: 5 μg/cm^2 (=500 g/ha), after 48 hours, read-out: activity (efficacy, fleas dead or moribund)
Summary of the method: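 Acetone solutions coated onto inner walls of glass tubes; 900 ppm gives 5 μg/cm^2. After drying, 5-10 adult Ctenocephalides felis per tube held 48 h at room temperature. Fleas then placed on 45-50° C. plate for up to 5 min; those unable to climb away scored dead or moribund, efficacy as % dead/moribund.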

Tetranychus urticae = Tetranychus urticae spray test OP-resistant; details: foliar, 144 h, 500 g/ha, French bean leaf disks, after 6 days
Protocol: Tetranychus urticae—Spray Test OP-Resistant
(§5) Solvent: 78.0 parts by weight acetone • 1.5 parts by weight dimethylformamide
(§6) Emulsifier: alkylarylpolyglycol ether
(§7) To produce a suitable preparation of active compound, 1 part by weight of active compound is mixed with the stated amount of solvents and is diluted with water, containing an emulsifier concentration of 1000 ppm, to the desired concentration. Further test concentrations are prepared by dilution with emulsifier containing water.
French bean (Phaseolus vulgaris) leaf disks infected with all instars of the two spotted spidermite (Tetranychus urticae) are sprayed with a preparation of the active ingredient of the desired concentration.
After 6 days mortality in % is determined. 100% means all spider mites have been killed and 0% means none of the spider mites have been killed.

Meloidogyne incognita = Meloidogyne incognita test; details: 20 ppm, after 14 days
Protocol: Meloidogyne incognita—Test
Solvent: 125.0 parts by weight of acetone
To produce a suitable preparation of active compound, 1 part by weight of active compound is mixed with the stated amount of solvent, and the concentrate is diluted with water to the desired concentration.
Vessels are filled with sand, a solution of the active ingredient, a suspension containing eggs and larvae of the southern root-knot nematode (Meloidogyne incognita) and salad seeds. The salad seeds germinate, and the seedlings grow. Galls develop in the roots.
After 14 days the nematicidal activity is determined based on the percentage of gall formation. 100% means no galls were found and 0% means the number of galls found on the roots of the treated plants was equal to that in untreated control plants.

Rhipicephalus sanguineus = Rhipicephalus sanguineus in-vitro contact test, adult brown dog ticks (RHIPSA Contact); details: 5 μg/cm^2 (=500 g/ha), after 48 hours, read-out: activity (efficacy, ticks dead or moribund)
Summary of the method: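 Acetone solution coated onto glass tube walls; 900 ppm gives 5 μg/cm^2. After drying, 5-10 adult ticks per tube kept at room temperature for 48 h, then placed on a 45-50° C heating plate up to 5 min; ticks unable to climb away counted dead or moribund, efficacy as % affected.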

Myzus persicae [8] = assay: Myzus persicae spray test; details: foliar, 120 h, Chinese cabbage leaf disks, after 5 days
Protocol: Myzus persicae—Spray Test
as §5, §6, §7
Chinese cabbage (Brassica pekinensis) leaf disks infected with all instars of the green peach aphid (Myzus persicae), are sprayed with a preparation of the active ingredient of the desired concentration.
as §4

[9] = test system: Musca domestica strain WHO-N; assay: Musca domestica test (MUSCDO surface treatment & contact assay); details: 30 minutes exposure, 24 hours after contact, read-out: efficacy (mortality)
Protocol: Musca domestica Test (MUSCDO Surface Treatment & Contact Assay)
as §1
as §2, with “2000” for “2 000”, “flies” for “mosquitoes”, “Musca domestica” for “Culex quinquefasciatus”, “WHO—N” for “P00”
as §3

[10] = surface concentration 4 mg/m^2, glazed tile

Compound	mortality at 100 ppm (Ctenocephalides felis [1])	pest or weed control at 0.02 mg (Boophilus microplus)	mortality at 500 g/ha (Spodoptera frugiperda)	pest or weed control at 5 µg/cm2 [3]	pest or weed control at 160 µg/disc, 500 g/ha (Diabrotica balteata)	pest or weed control at 5 µg/cm2, 5 µg/cm2 (Ctenocephalides felis [7])	activity (nematicidal activity, gall formation) (Meloidogyne incognita)	mortality at 100 g/ha (Myzus persicae [8])	other results
C[C@H](Nc1nc2cc(C(F)(F)F)cc(C(F)(F)F)c2o1)c1ncnn1-c1ncccn1 [Example I-005]	100%	100%	100%	100%	100%	100%			pest or weed control at 0.004 mg (Boophilus microplus): 100%; mortality at 20 mg/m2 [2]: 90 to 100%; mortality at 100 g/ha (Spodoptera frugiperda): 100%; mortality at 20 mg/m2 [4]: 90 to 100%; mortality at 4 ppm (Myzus persicae [5]): 90%; mortality at 20 mg/m2 [6]: 90 to 100%
C[C@H](Nc1nc2cc(Cl)c(Cl)cc2o1)c1ncnn1-c1ncccn1 [Example I-016]		100%	100%	100%	100%				pest or weed control at 100 g/ha (Diabrotica balteata): 100%; mortality at 500 g/ha (Tetranychus urticae): 90%
C[C@H](Nc1nc2cc(C(F)(F)F)cc(Cl)c2o1)c1ncnn1-c1ccc(Cl)nn1 [Example I-046, 7-Chlor-N-{(1S)-1-[1-(6-chlorpyridazin-3-yl)-1H-1,2,4-triazol-5-yl]ethyl}-5-(trifluormethyl)-1,3-benzoxazol-2-amin]				80%			90%		
C[C@H](Nc1nc2cc(C3CC3)cc(Cl)c2o1)c1ncnn1-c1ncccc1F [Example I-067, 7-Chlor-5-cyclopropyl-N-{(1S)-1-[1-(3-fluorpyridin-2-yl)-1H-1,2,4-triazol-5-yl]ethyl}-1,3-benzoxazol-2-amin]	80%	100%			80%				pest or weed control at 0.004 mg (Boophilus microplus): 100%; pest or weed control at 5 µg/cm2, 5 µg/cm2 (Rhipicephalus sanguineus): 80%; mortality at 500 g/ha (Tetranychus urticae): 90%
C[C@H](Nc1nc2cc(OC(F)(F)F)c(Cl)cc2o1)c1ncnn1-c1ncc(F)cn1 [Example I-081, 6-Chlor-N-{(1S)-1-[1-(5-fluorpyrimidin-2-yl)-1H-1,2,4-triazol-5-yl]ethyl}-5-(trifluormethoxy)-1,3-benzoxazol-2-amin]				90%		100%		90%	mortality at 100 g/ha (Spodoptera frugiperda): 100%; mortality at 4 mg/m2 [4, 10]: 85 to 100%; mortality at 20 mg/m2 [4]: 90 to 100%; mortality at 4 ppm (Myzus persicae [5]): 90%; pest or weed control at 5 µg/cm2, 5 µg/cm2 (Rhipicephalus sanguineus): 100%; pest or weed control at 100 g/ha (Diabrotica balteata): 100%; mortality at 4 mg/m2 [6, 10]: 85 to 100%; mortality at 20 mg/m2 [6]: 90 to 100%; mortality at 4 mg/m2 [9, 10]: 90 to 100%; mortality at 20 mg/m2 ([9]; surface concentration 20 mg/m^2, glazed tile): 90 to 100%
C[C@H](Nc1nc2cc(Cl)cc(C(F)(F)F)c2o1)c1ncnn1-c1ccc(C(F)(F)F)cn1 [Example I-087, 5-Chlor-7-(trifluormethyl)-N-[(1S)-1-{1-[5-(trifluormethyl)pyridin-2-yl]-1H-1,2,4-triazol-5-yl}ethyl]-1,3-benzoxazol-2-amin]				100%			90%		
C[C@H](Nc1nc2cc(Cl)cc(C(F)(F)F)c2o1)c1ncnn1-c1ccc(C#N)cn1 [Example I-088, 6-{5-[(1S)-1-{[5-Chlor-7-(trifluormethyl)-1,3-benzoxazol-2-yl]amino}ethyl]-1H-1,2,4-triazol-1-yl}nicotinonitril]			83%	100%	100%		90%		
Cc1nc([C@H](C)Nc2nc3cc(Cl)cc(C(F)(F)F)c3o2)n(-c2ccc(C#N)cn2)n1 [Example I-091, 6-{5-[(1S)-1-{[5-Chlor-7-(trifluormethyl)-1,3-benzoxazol-2-yl]amino}ethyl]-3-methyl-1H-1,2,4-triazol-1-yl)nicotinonitril]		100%		90%			90%		mortality at 500 g/ha (Myzus persicae [8]; 500 g/ha): 90%
C[C@H](Nc1nc2c(Cl)cc(C(F)(F)F)cn2n1)c1ncnn1-c1ncccn1 [Example I-092, 8-chloro-N-{(1S)-1-[1-(pyrimidin-2-yl)-1H-1,2,4-triazol-5-yl]ethyl}-6-(trifluoromethyl)[1,2,4]triazolo[1,5-a]pyridin-2-amine]	100%	100%		100%		90%		90%	
C[C@H](Nc1nc2c(Cl)cc(C(F)(F)F)cn2n1)c1ncnn1-c1ncc(Br)cn1 [Example I-093, N-{(1S)-1-[1-(5-bromopyrimidin-2-yl)-1H-1,2,4-triazol-5-yl]ethyl}-8-chloro-6-(trifluoromethyl)[1,2,4]triazolo[1,5-a]pyridin-2-amine]	100%			100%		100%		90%	

From patent US12384769B2, “Heteroaryl-substituted aminoalkyl azole compounds as pesticides” (Elanco Animal Health GmbH, priority 2019, dated 2025)
